Reference: patent publication US20090149455A1, “Use of Triazolopyrimidines for Controlling Plant Diseases on Legumes” (Bayer CropScience AG, priority 2005, published 2009)

Assay: log p
Format: physicochemical
Conditions: not given

Row | log p | SMILES
1 | 2.09 | Fc1ccccc1-c1c(Cl)nc2ncnn2c1N1CCOCC1 [Example 200]
2 | 3.55 | Cc1cc(C)c(-c2c(Cl)nc3ncnn3c2NC(C)C(F)(F)F)c(C)c1 (stereo not shown) [Example 35]
3 | 4.32 | CC(C)(C)CC(C)(C)Nc1c(-c2c(F)cc(F)cc2F)c(Cl)nc2ncnn12 [Example 10]
4 | 2.58 | Fc1cccc(Cl)c1-c1c(Cl)nc2ncnn2c1N1CCCC=N1 [Example 244]
5 | 3.22 | CC1CCN(c2c(-c3ccc(F)cc3Cl)c(Cl)nc3ncnn23)NC1 (stereo not shown) [Example 265]
6 | 3.14 | CC1C=NN(c2c(-c3c(F)cc(F)cc3F)c(Cl)nc3ncnn23)CC1C (stereo not shown) [Example 276]
7 | 3.33 | C[C@H](Nc1c(-c2ccc(C(F)(F)F)cc2F)c(Cl)nc2ncnn12)C(F)(F)F [Example 45]
8 | 2.8 | Cc1cc(C)c(-c2c(Cl)nc3ncnn3c2N2CCOCC2)c(C)c1 [Example 161]
9 | 2.2 | Clc1ccccc1-c1c(Cl)nc2ncnn2c1N1CCCN1 [Example 263]
10 | 3.53 | Fc1cc(F)c(-c2c(Cl)nc3ncnn3c2N2CCCCC2)c(F)c1 [Example 173]
11 | 2.85 | CC1C=NN(c2c(-c3c(F)cc(F)cc3F)c(Cl)nc3ncnn23)CC1 (stereo not shown) [Example 273]
12 | 2.69 | Fc1c(F)c(F)c(-c2c(Cl)nc3ncnn3c2N2CCOCC2)c(F)c1F [Example 199]
13 | 2.88 | CC(Nc1c(-c2c(F)cc(F)cc2F)c(Cl)nc2ncnn12)C(F)(F)F (stereo not shown) [Example 29]
14 | 3.09 | CC(Nc1c(-c2c(F)cc(C(F)(F)F)cc2F)c(Cl)nc2ncnn12)C(F)(F)F (stereo not shown) [Example 56]
15 | 3.42 | C=C(C)CN(CC)c1c(-c2c(F)cccc2F)c(Cl)nc2ncnn12 [Example 95]
16 | 3.17 | CC(C)[C@H](C)Nc1c(-c2c(F)cc(F)cc2F)c(Cl)nc2ncnn12 [Example 77]
17 | 3.15 | CC1C=NN(c2c(-c3c(F)cccc3Cl)c(Cl)nc3ncnn23)CC1C (stereo not shown) [Example 275]
18 | 1.43 | CN1CCN(c2c(-c3c(F)c(F)c(F)c(F)c3F)c(Cl)nc3ncnn23)CC1 [Example 197]
19 | 3.54 | CCC(C)Nc1c(-c2ccc(Cl)cc2Cl)c(Cl)nc2ncnn12 (stereo not shown) [Example 8]
20 | 3.78 | C[C@H](Nc1c(-c2cc(SC(F)(F)F)ccc2Cl)c(Cl)nc2ncnn12)C(F)(F)F [Example 50]
21 | 2.94 | CCC(C)Nc1c(-c2ccccc2Cl)c(Cl)nc2ncnn12 (stereo not shown) [Example 9]

Row | log p | SMILES
22 | 3.17 | CSc1cc(F)cc(F)c1-c1c(Cl)nc2ncnn2c1N[C@@H](C)C(F)(F)F [Example 38]
23 | 3.07 | Fc1cc(C(F)(F)F)cc(Cl)c1-c1c(Cl)nc2ncnn2c1N1CCOCC1 [Example 175]
24 | 3.05 | CC1CCN(c2c(-c3c(F)cc(F)cc3F)c(Cl)nc3ncnn23)NC1 (stereo not shown) [Example 274]
25 | 3.52 | CC1CCCN(c2c(-c3ccc(F)cc3F)c(Cl)nc3ncnn23)C1 (stereo not shown) [Example 189]
26 | 2.18 | CN(C)c1c(-c2ccccc2F)c(Cl)nc2ncnn12 [Example 85]
27 | 3.12 | CC1C=CCN(c2c(-c3c(F)cc(F)cc3F)c(Cl)nc3ncnn23)O1 (stereo not shown) [Example 246]
28 | 2.6 | C=C(C)CNc1c(-c2ccc(F)cc2F)c(Cl)nc2ncnn12 [Example 97]
29 | 2.97 | CC(C)CNc1c(-c2ccccc2Cl)c(Cl)nc2ncnn12 [Example 126]
30 | 3.8 | CC1CCN(c2c(-c3ccccc3C(F)(F)F)c(Cl)nc3ncnn23)CC1 [Example 279]
31 | 3.89 | C[C@H](Nc1c(-c2c(Cl)cc(OC(F)(F)F)cc2Cl)c(Cl)nc2ncnn12)C(F)(F)F [Example 37]
32 | 3.01 | CC1CCN(c2c(-c3c(F)cccc3Cl)c(Cl)nc3ncnn23)NC1 (stereo not shown) [Example 267]
33 | 3.68 | CC1CCN(c2c(-c3c(F)cccc3Cl)c(Cl)nc3ncnn23)CC1 [Example 158]
34 | 3.52 | C[C@H](Nc1c(-c2ccc(C(F)(F)F)c(F)c2F)c(Cl)nc2ncnn12)C(F)(F)F [Example 42]
35 | 2.03 | Clc1nc2ncnn2c(N2CCOCC2)c1-c1ccccc1 [Example 252]
36 | 2.74 | C[C@H](Nc1c(-c2cc(F)ccc2F)c(Cl)nc2ncnn12)C(F)(F)F [Example 62]
37 | 4.12 | C=C(C)CN(CC)c1c(-c2cc(C(F)(F)F)ccc2Cl)c(Cl)nc2ncnn12 [Example 100]
38 | 2.62 | Fc1ccc(-c2c(Cl)nc3ncnn3c2N2CCCC2)c(F)c1 [Example 185]
39 | 3.54 | C[C@H](Nc1c(-c2c(F)cc(F)cc2F)c(Cl)nc2ncnn12)C(C)(C)C [Example 68]
40 | 2.78 | Clc1ccc(-c2c(Cl)nc3ncnn3c2N2CCOCC2)c(Cl)c1 [Example 254]
41 | 2.01 | CNc1c(-c2c(F)cc(F)cc2F)c(Cl)nc2ncnn12 [Example 83]
42 | 4.23 | CC1=CCCN(c2c(-c3c(F)cc(C(F)(F)F)cc3Cl)c(Cl)nc3ncnn23)C1 [Example 183]

Row | log p | SMILES
43 | 3.59 | CC(C)CC(C)Nc1c(-c2c(F)cc(F)cc2F)c(Cl)nc2ncnn12 (stereo not shown) [Example 80]
44 | 3.33 | CC1CN(c2c(-c3c(F)c(F)c(F)c(F)c3F)c(Cl)nc3ncnn23)CC(C)O1 (stereo not shown) [Example 206]
45 | 3.8 | CC1(C)CCN(c2c(-c3ccc(F)cc3F)c(Cl)nc3ncnn23)CC1 [Example 191]
46 | 2.78 | Fc1cccc(Cl)c1-c1c(Cl)nc2ncnn2c1N1CC=CCO1 [Example 243]
47 | 2.98 | Fc1ccc(-c2c(Cl)nc3ncnn3c2N2CCCCN2)c(C(F)(F)F)c1 [Example 249]
48 | 3.29 | Fc1c(F)c(F)c(-c2c(Cl)nc3ncnn3c2N2CCSCC2)c(F)c1F [Example 209]
49 | 4.18 | Fc1cc(C(F)(F)F)cc(Cl)c1-c1c(Cl)nc2ncnn2c1N1CCC(C(F)(F)F)CC1 [Example 178]
50 | 2.87 | C[C@H](Nc1c(-c2ccccc2Cl)c(Cl)nc2ncnn12)C(F)(F)F [Example 58]
51 | 3.47 | CC1CCN(c2c(-c3ccccc3)c(Cl)nc3ncnn23)CC1 [Example 253]
52 | 3.9 | C=C(C)CN(CC)c1c(-c2cccc3c2OC(F)(F)O3)c(Cl)nc2ncnn12 [Example 101]
53 | 3.69 | C=C(C)CN(CC)c1c(-c2ccccc2Cl)c(Cl)nc2ncnn12 [Example 105]
54 | 4.37 | CC1CCN(c2c(-c3c(F)cc(C(F)(F)F)cc3Cl)c(Cl)nc3ncnn23)CC1 [Example 182]
55 | 3.61 | Fc1c(F)c(F)c(-c2c(Cl)nc3ncnn3c2N2CCCCC2)c(F)c1F [Example 198]
56 | 2.48 | C=C(C)CNc1c(-c2ccccc2F)c(Cl)nc2ncnn12 [Example 91]
57 | 2.79 | CC1C=NN(c2c(-c3ccccc3Cl)c(Cl)nc3ncnn23)CC1 (stereo not shown) [Example 272]
58 | 2.68 | Fc1ccccc1-c1c(Cl)nc2ncnn2c1N1CCSCC1 [Example 165]
59 | 3.58 | C[C@@H](Nc1c(-c2c(F)cccc2Cl)c(Cl)nc2ncnn12)C(C)(C)C [Example 70]
60 | 3.71 | CC1CCN(c2c(-c3ccccc3Cl)c(Cl)nc3ncnn23)CC1 [Example 256]
61 | 2.92 | Fc1cc(F)c(-c2c(Cl)nc3ncnn3c2N2CCCCO2)c(F)c1 [Example 201]
62 | 2.88 | CC(Nc1c(-c2ccccc2Cl)c(Cl)nc2ncnn12)C(F)(F)F (stereo not shown) [Example 57]
63 | 3.51 | C[C@H](Nc1c(-c2cc(C(F)(F)F)ccc2C(F)(F)F)c(Cl)nc2ncnn12)C(F)(F)F [Example 39]

Same assay, conditions: read-out: log p

Row | log p | SMILES
64 | 3.6 | CC1CCN(c2c(-c3c(F)cc(F)cc3F)c(Cl)nc3ncnn23)CC1 [Example 156, 5-Chloro-7-(4-methylpiperidin-1-yl)-6-(2,4,6-trifluorophenyl)[1,2,4]triazolo[1,5-a]-pyrimidine]
